Measurements taken from patent US9963461B2, “Phillygenin ibuprofen ester, preparation method therefor, and application thereof” (priority 2014, dated 2018).
Read-outs that look alike come from different tables or passages of the source. Marks after values point to notes of the source that are not given here.

Assays:
[1] = Solubility; format: physicochemical
[2] = system: rat toe swelling induced by carrageenan; assay: Rat toe swelling induced by carrageenan; format: in vivo, Wistar rats
Description: The test groups were administered by sublingual intravenous injection. Before the test, capillary magnification measurement method was used to measure the normal volume of the right hind foot of the rats in each group. To avoid errors, the measurement location was fixed and the operation was made by one person both before and after the administration. The average value of the two measurements was taken as the normal volume of the right hind foot of the rats before administration. […] The difference between the groups was compared by inter-group t test processing through the difference percentage (swelling ratio) of the paw volume before and after the induced rat inflammation.

[3] = system: mice pain induced by acetic acid; assay: Analgesic test, mice writhing induced by acetic acid; format: in vivo, Kunming mice; conditions: for Writhing times: within 15 min after 0.7% acetic acid
Description: 72 Kunming mice were randomly divided into 6 groups, with 12 mice for each group. (1) the blank normal control group (i.e. saline group, […]); (2) positive drug aspirin group (200 mg/kg); (3) ibuprofen group (300 mg/kg); (4) high dose group of phillygenin ibuprofen ester (300 mg/kg); (5) medium dose group of phillygenin ibuprofen ester (150 mg/kg); (6) low dose group of phillygenin ibuprofen ester (75 mg/kg). […] The number of mice writhings within 15 min after administration was recorded. The number of writhings was taken as the evaluation index to evaluate the analgesic effect.

[4] = system: sweat gland epithelial cells at the rat toe part; assay: Sweat secretion of rat paw part (tissue morphology observation method); format: in vivo, Wistar rats; conditions: for Number of sweat glands of vacuole / Void fraction (%): rat toe part
Text: This test was based on the mechanism that when rat sweat gland is excited, in addition to sweat secretion increase, the morphology of sweat gland epithelial cell is also changed. The number increase and expansion of empty cells of the sweat gland epithelial cells can be seen under the optical microscope. Such enlarged vacuole presents mitochondrial in sweat gland epithelial cells swelling, rupture, fusion and secretory vesicle enlargement under the electron microscope, and through the morphological observation of the sweat gland epithelial cell at the rat paw part, the secretory activity of the sweat gland can be known. In the test, 70 Wistar rats were selected, with equal male and female number, weighing 120-160 g. […] Besides that subcutaneous injection was used for the pilocarpine solution, intragastric administration was used for all the other groups.

[5] = system: influenza virus; format: in vivo, Kunming mice; conditions: for Lung index (X ± S) / Lung index Inhibitive rate (%): influenza virus infected mice, 5 days
[6] = system: influenza virus; format: in vivo, Kunming mice; conditions: lung suspensions, influenza virus infected mice, 5 days
[7] = system: parainfluenza virus; assay: Impact of the drugs on the virus-induced cytopathy (MTT); format: cell-based; conditions: parainfluenza virus 100 TCID50, Vero cells, about the maximal non-cytotoxic concentration, 72 hours
[8] = system: parainfluenza virus; format: in vivo, Kunming mice; conditions: for Lung index (X ± S) / Lung index Inhibitive rate (%): parainfluenza virus infected mice, 5 days
[9] = system: influenza virus; assay: Impact of the drugs on the virus-induced cytopathy (MTT); format: cell-based; conditions: influenza virus 100 TCID50, Vero cells, about the maximal non-cytotoxic concentration, 72 hours
[10] = system: rabbit fever induced by typhoid and paratyphoid vaccine; assay: Rabbit fever induced by typhoid and paratyphoid vaccine; format: in vivo, Japanese white rabbits
Description: Japanese male big-ear white rabbits, weighing 1.5-2.0 kg. Before the test, WSC-411P portable digital thermometer was used to measure the normal rectal temperature twice (with certain interval for each time), and the average value was taken as the normal body temperature. Then 48 Japanese big-ear white rabbits with body temperature of 38-39.6° C. were selected and randomly divided into 8 groups by weight, namely: the blank control (normal saline) group, the model control (0.5% carboxymethylcellulose) group, the ibuprofen group (300 mg/kg), the phillygenin group (10 mg/kg), the 1.25, 2.5, and 5 mg/kg phillygenin ibuprofen ester groups and the positive drug paracetamol (50 mg/kg) group. The rabbits were fixed in a fixator. The blank control group was intravenously injected with normal saline of 1 ml/kg via the ear margin; The model control group and the drug groups were intravenously injected with typhoid and paratyphoid vaccines of 0.8 ml/kg via the ear margin. When the body temperature rise of the rabbits was greater than 1° C. (requiring about 1-1.5 h, which was restricted to 1 h in this test), the blank control group and the model group were administered intragastrically with 0.5% carboxymethycellulose of 1 ml/kg, and the drug groups were administered intragastrically with phillygenin ibuprofen ester and paracetamol. […]

[11] = system: influenza and parainfluenza virus induced pneumonia; assay: Histomorphology observation of lung; format: in vivo, Kunming mice; conditions: high dosage and medium dosage groups, Day 5 after treatment
Description: On Day 5 after treatment, the lungs of mice in each group were picked, and general pathological changes of their viscera are observed by naked eyes and are recorded. The lungs were rinsed with normal saline and moisture thereon is sucked up by using filter paper, a part of the lung was fixed with 10% formaldehyde and embedded with paraffin and sliced, and the lung tissue slices were stained with HE, followed by observation and photographing under a microscope.

[12] = 1.25 mg/kg, time after administration (min) 30
[13] = 1.25 mg/kg, time after administration (min) 60
[14] = 1.25 mg/kg, time after administration (min) 90
[15] = 1.25 mg/kg, time after administration (min) 120
[16] = 1.25 mg/kg, time after administration (min) 180
[17] = 2.5 mg/kg, time after administration (min) 30
[18] = 2.5 mg/kg, time after administration (min) 60
[19] = 2.5 mg/kg, time after administration (min) 90
[20] = 2.5 mg/kg, time after administration (min) 120
[21] = 2.5 mg/kg, time after administration (min) 180
[22] = 5.0 mg/kg, time after administration (min) 30
[23] = 5.0 mg/kg, time after administration (min) 90
[24] = 5.0 mg/kg, time after administration (min) 120
[25] = 5.0 mg/kg, time after administration (min) 180

## COc1ccc([C@H]2OCC3C2CO[C@H]3c2ccc(OC)c(OC(=O)C(C)c3ccc(CC(C)C)cc3)c2)cc1OC (stereo partly drawn) [Phillygenin ibuprofen ester, phillygenin ibuprofen ester]
[1]
  solubility: soluble in methanol; chloroform, and dichloromethane
[2]; 2.5 mg/kg sublingual intravenous injection, 30 min
  Swelling ratio (%): 0.215 ± 0.120%
[2]; 2.5 mg/kg sublingual intravenous injection, 60 min
  Swelling ratio (%): 0.293 ± 1.117%
[2]; 2.5 mg/kg sublingual intravenous injection, 120 min
  Swelling ratio (%): 0.450 ± 0.254%
[2]; 2.5 mg/kg sublingual intravenous injection, 180 min
  Swelling ratio (%): 0.800 ± 0.339%
[2]; 2.5 mg/kg sublingual intravenous injection, 240 min
  Swelling ratio (%): 0.865 ± 0.303%
[2]; 2.5 mg/kg sublingual intravenous injection, 300 min
  Swelling ratio (%): 1.045 ± 0.308%
[2]; 2.5 mg/kg sublingual intravenous injection, 360 min
  Swelling ratio (%): 0.930 ± 0.200%
[2]; 5.0 mg/kg sublingual intravenous injection, 30 min
  Swelling ratio (%): 0.065 ± 0.112 %
[2]; 5.0 mg/kg sublingual intravenous injection, 60 min
  Swelling ratio (%): 0.127 ± 0.178 %
[2]; 5.0 mg/kg sublingual intravenous injection, 120 min
  Swelling ratio (%): 0.209 ± 0.438 %
[2]; 5.0 mg/kg sublingual intravenous injection, 180 min
  Swelling ratio (%): 0.338 ± 0.524 %
[2]; 5.0 mg/kg sublingual intravenous injection, 240 min
  Swelling ratio (%): 0.461 ± 0.402**^Δ %
[2]; 5.0 mg/kg sublingual intravenous injection, 300 min
  Swelling ratio (%): 0.688 ± 0.503%
[2]; 5.0 mg/kg sublingual intravenous injection, 360 min
  Swelling ratio (%): 0.675 ± 0.578%
[2]; 10.0 mg/kg sublingual intravenous injection, 30 min
  Swelling ratio (%): 0.025 ± 0.210***^Δ▴▴▴ %
[2]; 10.0 mg/kg sublingual intravenous injection, 60 min
  Swelling ratio (%): 0.079 ± 0.156**^Δ▴▴ %
[2]; 10.0 mg/kg sublingual intravenous injection, 120 min
  Swelling ratio (%): 0.140 ± 0.156 %
[2]; 10.0 mg/kg sublingual intravenous injection, 180 min
  Swelling ratio (%): 0.191 ± 0.216 %
[2]; 10.0 mg/kg sublingual intravenous injection, 240 min
  Swelling ratio (%): 0.255 ± 0.294 %
[2]; 10.0 mg/kg sublingual intravenous injection, 300 min
  Swelling ratio (%): 0.310 ± 0.226***^Δ▴▴ %
[2]; 10.0 mg/kg sublingual intravenous injection, 360 min
  Swelling ratio (%): 0.405 ± 0.231 %
[2]; high dose group, within 30 min to 360 min after administration
  effect on the rat paw swelling induced by carrageenin vs blank control group: significant inhibitive effects
[3]; 75 mg/kg intragastric
  Writhing times: 15.8*
[3]; 150 mg/kg intragastric
  Writhing times: 6.5*
[3]; 300 mg/kg intragastric
  Writhing times: 3.9*^#
[3]; low, medium and high dose groups (75, 150, 300 mg/kg), P<0.01
  effect on mice pain induced by acetic acid vs blank control group: had analgesic effect
[4]; 5 and 10 mg/kg, p<0.01 or p<0.001
  effect on the sweat secretion of the rat toe part vs control group: obvious promoting effect
[4]; 2.5 mg/kg intragastric
  Number of sweat glands of vacuole: 20
  Void fraction (%): 8.47%
[4]; 5.0 mg/kg intragastric
  Number of sweat glands of vacuole: 42
  Void fraction (%): 32.11***; ^# %
[4]; 10.0 mg/kg intragastric
  Number of sweat glands of vacuole: 75
  Void fraction (%): 35.21***; ^## %
[5]; 4.0 mg/kg/d intragastric
  Lung index (X ± S): 1.222 ± 0.040
  Lung index Inhibitive rate (%): 17.90%
[5]; 8.0 mg/kg/d intragastric
  Lung index (X ± S): 1.190 ± 0.061
  Lung index Inhibitive rate (%): 20.05%
[5]; 13.0 mg/kg/d intragastric
  Lung index (X ± S): 1.147 ± 0.048
  Lung index Inhibitive rate (%): 22.94%
[5]; mouse, in vivo
  effect on average lung index vs infection model group: certain protective effect
[6]; 3.25 mg/kg/d
  Hemagglutination titer (InX): 22.01 ± 1.420
  Hemagglutination titer Inhibitive rate (%): 32.07%
[6]; 13.0 mg/kg/d
  Hemagglutination titer (InX): 19.32 ± 0.624
  Hemagglutination titer Inhibitive rate (%): 40.36%
[7]
  antiviral effective rate (ER %): 100.00**^# %
[8]; mouse, in vivo
  effect on average lung index vs infection model group: certain protective effect
[8]; 3.25 mg/kg/d intragastric
  Lung index (X ± S): 1.320 ± 0.053
  Lung index Inhibitive rate (%): 17.01%
[8]; 13.0 mg/kg/d intragastric
  Lung index (X ± S): 1.237 ± 0.070
  Lung index Inhibitive rate (%): 22.25%
[9]
  antiviral effective rate (ER %): 99.95**^# %
[10]; [12]
  Body temperature (° C.): 40.68 ± 0.41 °C
  antipyretic percentage (%): 0.98 ± 0.11%
[10]; [13]
  Body temperature (° C.): 40.61 ± 0.38 °C
  antipyretic percentage (%): −1.15 ± 0.15 %
[10]; [14]
  Body temperature (° C.): 40.50 ± 0.39 °C
  antipyretic percentage (%): −1.40 ± 0.20 %
[10]; [15]
  Body temperature (° C.): 40.29 ± 0.42 °C
  antipyretic percentage (%): −1.92 ± 0.31 %
[10]; [16]
  Body temperature (° C.): 40.10 ± 0.35 °C
  antipyretic percentage (%): −2.39 ± 0.43 %
[10]; [17]
  Body temperature (° C.): 40.83 ± 0.39 °C
  antipyretic percentage (%): −1.10 ± 0.00 %
[10]; [18]
  Body temperature (° C.): 40.37 ± 0.33 °C
  antipyretic percentage (%): −2.20 ± 0.05**^Δ▴▴ %
[10]; [19]
  Body temperature (° C.): 40.12 ± 0.21 °C
  antipyretic percentage (%): −2.81 ± 0.12 %
[10]; [20]
  Body temperature (° C.): 40.02 ± 0.20 °C
  antipyretic percentage (%): −3.06 ± 0.43 %
[10]; [21]
  Body temperature (° C.): 39.90 ± 0.25 °C
  antipyretic percentage (%): −3.35 ± 0.29 %
[10]; 5.0 mg/kg, 60 min after administration
  antipyretic percentage (%): −2.61 ± 0.10**^ΔΔ▴▴ %
[10]; [22]
  Body temperature (° C.): 40.57 ± 0.28 °C
  antipyretic percentage (%): −1.30 ± 0.11 %
[10]; 5.0 mg/kg, time after administration (min) 60
  Body temperature (° C.): 40.04 ± 0.20 °C
[10]; [23]
  Body temperature (° C.): 39.88 ± 0.23 °C
  antipyretic percentage (%): −2.98 ± 0.22 %
[10]; [24]
  Body temperature (° C.): 39.65 ± 0.20 °C
  antipyretic percentage (%): −3.54 ± 0.18***^Δ▴▴▴ %
[10]; [25]
  Body temperature (° C.): 39.42 ± 0.25 °C
  antipyretic percentage (%): −4.10 ± 0.17***^Δ▴▴ %
[10]; high and medium dose groups (5, 10 mg/kg) 30-240 min, low dose group (5 mg/kg) 60-240 min after administration
  effect on rabbit fever induced by the typhoid and paratyphoid vaccines vs model group: significant antipyretic effect
[11]
  lung lesions of mice (lung histology, HE): significantly alleviated
